Assay results reported in US7084128B2, “Method for reducing intraocular pressure” (Inspire Pharmaceuticals, Inc., priority 2002, dated 2006).

Legend:
[1] = tested on: intraocular pressure (IOP); conditions: New Zealand white rabbits; for time of maximal reduction in IOP: 0.25 mM topical single dose, IOP measured at 0.5, 1, 2 and 5 hours after application; for maximal reduction in IOP: 10 microliters of 0.25 mM in 0.9% saline, topical, unilateral, single dose, at time of maximal effect, n=4
Method: The actions of 2′-(O)-, 3′-(O)-(benzyl)methylenedioxy-adenosine-5′-triphosphate (Compound 1) and 2′-(O)-, 3′-(O)-(benzyl)methylenedioxy-2″-(O)-,3″-(O)-benzyl methylenedioxy-P^1, P^4-di(adenosine 5′-)tetraphosphate (Compound 2) on intraocular pressure (IOP) were assessed in New Zealand white rabbits.
Intraocular pressure measurements: IOP was measured using a TONOPEN contact tonometer supplied by MENTOR (USA). Ten microliters of the agents were applied topically and unilaterally to the cornea, whereas the contralateral eye received the same volume of saline solution. The corneas were anesthetized to avoid any discomfort associated with the use of the tonometer. Two measurements were made before application of the agents.
Pharmacological studies: Compounds were prepared at a concentration of 0.25 mM in 0.9% saline and intraocular pressure was measured at 0.5, 1, 2, and 5 hours after the application. A single dose was tested in a single animal on a single day.

intraocular pressure = conditions: literature (Peral et al. 2000; Pintor et al. 2000); cited from earlier work

Compound	time of maximal reduction in IOP [1] [h]	maximal reduction in IOP [1] [%]	effect on intraocular pressure in rabbits (intraocular pressure)
Nc1ncnc2c1ncn2[C@@H]1O[C@H](COP(=O)(O)OP(=O)(O)OP(=O)(O)OP(=O)(O)OC[C@H]2O[C@@H](n3cnc4c(N)ncnc43)[C@@H]3OC(Cc4ccccc4)O[C@@H]32)[C@H]2OC(Cc3ccccc3)O[C@H]21 (stereo partly shown) [Compound 2, 2′-(O)-, 3′-(O)-(benzyl)methylenedioxy-2″-(O)-,3″-(O)-benzyl methylenedioxy-P^1, P^4-di(adenosine 5′-)tetraphosphate]	1	22	–
Nc1ncnc2c1ncn2[C@@H]1O[C@H](COP(=O)(O)OP(=O)(O)CP(=O)(O)O)[C@@H](O)[C@H]1O [beta, gamma methylene adenosine triphosphate]	–	–	reduce intraocular pressure
Nc1ncnc2c1ncn2[C@@H]1O[C@H](COP(=O)(O)CP(=O)(O)OP(=O)(O)O)[C@@H](O)[C@H]1O [Alpha, Beta-Methylene adenosine triphosphate]	–	–	reduce intraocular pressure
2′-(O)-, 3′-(O)-(benzyl)methylenedioxy-adenosine-5′-triphosphate [Compound 1]	1 to 2	21	–
Nc1ncnc2c1ncn2[C@@H]1O[C@H](COP(=O)(O)OP(=O)(O)OP(=O)(O)OP(=O)(O)OC[C@H]2O[C@@H](n3cnc4c(N)ncnc43)[C@H](O)[C@@H]2O)[C@@H](O)[C@H]1O [Diadenosine tetraphosphate]	–	–	lower intraocular pressure
